Consider 1 compound from paper PMC3440086, “Profiling Environmental Chemicals for Activity in the Antioxidant Response Element Signaling Pathway Using a High Throughput Screening Approach” (Environmental Health Perspectives, 2012).

“Also recorded” adds a separate entry of the source.

Assay [1] relates to antioxidant response element (ARE) signaling pathway. Put plainly: ARE-bla β-lactamase reporter gene assay in HepG2 cells (qHTS). It is filed as cell-based, human.
In assay [2] the test system is mitogen-activated protein kinase (MAPK) pathway. The conditions noted are these: cited from earlier work.
Assay [3] relates to Nrf2-dependent ARE transcriptional activity. As to the kind of experiment: ARE-luc luciferase reporter gene assay in HepG2 cells (qHTS). Format: cell-based. The arrangement: Emax: reference not given here.
The test system of a further assay is mutated ARE. It is filed as cell-based.

As to `Oc1cccc2cccnc12` [8-Hydroxyquinoline], the “activity in ARE-bla assay (words)” value in assay [1] was “active; also recorded: demonstrated activity”. For the same compound, the EC50 (usually the midpoint of the concentration-response curve) in assay [1] (Homo sapiens, HepG2, 16 h, read-out: ARE-bla EC50) amounted to 16.1 ± 5.1 µM; in assay [3] (Homo sapiens, HepG2, 16 h, read-out: ARE-luc EC50) it was 10.1 ± 3.9 µM. For the same compound, the Emax in assay [1] (Homo sapiens, HepG2, read-out: ARE-bla Efficacy) came to 53%; in assay [3] (Homo sapiens, HepG2, read-out: ARE-luc Efficacy), 200%. The “induction of MAPK pathway” value in assay [2] was “shown to induce”. Moreover, the “activity in ARE-luc assay (words)” value in assay [3] is reported as “active; also recorded: demonstrated activity”. Besides, the “ARE-bla mutant IC50” value with mutated ARE was “inactive”.
